Legend:
Format in all cases: tissue-based
[1] = biological target: 5-hydroxytryptamine receptor 4 (Rattus norvegicus, UniProt Q62758); experiment: Binding affinity against 5-hydroxytryptamine 4 receptor using [3H]GR-113808 as radioligand in rat striatum
[2] = biological target: T1, Serotonin 3 (5-HT3) receptor (Rattus norvegicus, UniProt P35563+Q9JJ16); experiment: Binding affinity against 5-hydroxytryptamine 3 receptor using [3H]BRL-43694 as radioligand in rat posterior cortex
T1 sequence (P35563 whole entry): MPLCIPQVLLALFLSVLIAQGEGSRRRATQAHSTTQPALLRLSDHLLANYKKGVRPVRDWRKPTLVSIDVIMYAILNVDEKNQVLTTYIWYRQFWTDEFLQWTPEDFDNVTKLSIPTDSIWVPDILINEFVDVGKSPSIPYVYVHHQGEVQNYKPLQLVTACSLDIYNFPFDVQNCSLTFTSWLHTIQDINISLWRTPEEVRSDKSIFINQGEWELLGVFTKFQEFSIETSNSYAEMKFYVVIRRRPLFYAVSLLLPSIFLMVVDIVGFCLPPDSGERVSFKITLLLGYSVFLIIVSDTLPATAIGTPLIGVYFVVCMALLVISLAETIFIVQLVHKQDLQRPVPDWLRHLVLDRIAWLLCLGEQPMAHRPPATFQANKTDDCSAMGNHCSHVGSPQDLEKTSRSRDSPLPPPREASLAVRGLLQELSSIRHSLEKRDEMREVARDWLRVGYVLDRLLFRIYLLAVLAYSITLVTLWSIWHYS
T1 sequence (Q9JJ16 whole entry): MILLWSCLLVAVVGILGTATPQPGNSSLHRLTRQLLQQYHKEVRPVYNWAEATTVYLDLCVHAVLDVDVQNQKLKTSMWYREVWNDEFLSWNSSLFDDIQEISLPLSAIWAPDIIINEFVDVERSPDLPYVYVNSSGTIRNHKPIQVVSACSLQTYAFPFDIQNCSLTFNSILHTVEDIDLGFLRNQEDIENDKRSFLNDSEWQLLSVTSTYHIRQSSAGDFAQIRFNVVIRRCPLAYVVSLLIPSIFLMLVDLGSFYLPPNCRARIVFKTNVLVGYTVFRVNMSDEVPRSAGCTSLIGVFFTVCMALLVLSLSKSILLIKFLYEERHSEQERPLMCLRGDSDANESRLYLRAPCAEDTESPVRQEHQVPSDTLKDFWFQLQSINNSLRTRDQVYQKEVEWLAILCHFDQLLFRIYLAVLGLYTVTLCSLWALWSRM

[3] = biological target: D(2) dopamine receptor (Rattus norvegicus, UniProt P61169); experiment: Binding affinity against Dopamine receptor D2 using [3H]spiperone as radioligand in rat striatum
Chain of D(2) dopamine receptor (P61169 whole entry): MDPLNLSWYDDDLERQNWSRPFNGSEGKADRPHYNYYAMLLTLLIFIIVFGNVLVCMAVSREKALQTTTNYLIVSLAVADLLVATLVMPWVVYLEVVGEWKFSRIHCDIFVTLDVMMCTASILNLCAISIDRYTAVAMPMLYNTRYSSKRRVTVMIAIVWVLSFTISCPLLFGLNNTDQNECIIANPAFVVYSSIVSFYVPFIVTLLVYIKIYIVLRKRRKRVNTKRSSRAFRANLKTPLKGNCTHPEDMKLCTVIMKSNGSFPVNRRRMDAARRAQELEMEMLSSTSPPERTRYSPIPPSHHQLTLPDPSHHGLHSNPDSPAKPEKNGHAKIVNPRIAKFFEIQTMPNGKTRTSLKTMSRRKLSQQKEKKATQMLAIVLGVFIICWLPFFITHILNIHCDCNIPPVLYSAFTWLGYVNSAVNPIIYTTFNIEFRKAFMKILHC

Chain of 5-hydroxytryptamine receptor 4 (Q62758 whole entry): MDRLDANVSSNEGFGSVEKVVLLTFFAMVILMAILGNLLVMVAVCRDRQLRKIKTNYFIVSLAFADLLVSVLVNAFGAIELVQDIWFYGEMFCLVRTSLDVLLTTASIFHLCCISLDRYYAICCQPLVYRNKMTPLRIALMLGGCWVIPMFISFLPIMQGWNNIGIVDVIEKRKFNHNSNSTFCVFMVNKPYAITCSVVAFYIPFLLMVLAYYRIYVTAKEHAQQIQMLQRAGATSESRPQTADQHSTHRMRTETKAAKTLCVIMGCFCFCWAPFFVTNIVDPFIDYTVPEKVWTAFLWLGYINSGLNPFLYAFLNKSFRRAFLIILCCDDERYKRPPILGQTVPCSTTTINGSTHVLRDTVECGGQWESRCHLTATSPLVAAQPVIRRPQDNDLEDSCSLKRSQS

| SMILES | Ki [1] [µM] | Ki [2] [µM] | Ki [3] [µM] |
| --- | --- | --- | --- |
| COc1cc(N)c(Cl)cc1C(=O)NC1CC2CCC(C1)N2C (stereo in doubt) | 0.048 | 0.0008 | > 1 |
| Nc1cc2c(cc1Cl)C(=O)NC1CCN(CCOCCO2)CC1 | 0.0297 | 0.0532 | > 1 |
| COc1cc(N)c(Cl)cc1C(=O)N[C@@H]1CN2CCC1CC2 | 0.383 |  | > 1 |
| COc1cc(N)c(Cl)cc1C(=O)NC1CC2CCC(C1)N2C (stereo in doubt; 5) | > 1 | 0.0418 | > 1 |
| COc1cc(N)c(Cl)cc1C(=O)NC1CC2CCC(C1)N2Cc1ccccc1 (centres undefined) | 0.233 | > 1 | 0.00028 |
| COc1cc(N)c(Cl)cc1C(=O)NC1CCN(C)CC1 | 0.832 | 0.267 | > 1 |
| COc1cc(N)c(Cl)cc1C(=O)NC1CCN(Cc2ccccc2)CC1 [CLEBOPRIDE] | 0.104 | > 1 |  |
